Results reported in the NIST ThermoML archive (doi:10.1016/j.tca.2013.02.009).

Test: molar heat capacity at constant pressure
Conditions: 101.33 kPa, Crystal, Large sample (1 g) DSC

[O-2].[O-2].[O-2].[Y+3].[Y+3] [yttrium oxide (Y2O3)]
Conditions | molar heat capacity at constant pressure [J/K/mol]
603 K | 122.98
613 K | 123.25
623 K | 123.52
633 K | 123.77
643 K | 124
653 K | 124.22
663 K | 124.43
673 K | 124.63
683 K | 124.82
693 K | 125
703 K | 125.16
713 K | 125.32
723 K | 125.47
733 K | 125.62
743 K | 125.75
753 K | 125.88
763 K | 126
773 K | 126.12
783 K | 126.22
793 K | 126.33
803 K | 126.42
813 K | 126.52
823 K | 126.6
833 K | 126.68
843 K | 126.76
853 K | 126.83
863 K | 126.9
873 K | 126.97
883 K | 127.03
893 K | 127.09
903 K | 127.14
913 K | 127.19
923 K | 127.24
933 K | 127.28
943 K | 127.32
953 K | 127.36
963 K | 127.4
973 K | 127.43
983 K | 127.46
993 K | 127.49
1003 K | 127.52
1013 K | 127.54
1023 K | 127.57
1033 K | 127.59
1043 K | 127.61
1053 K | 127.62
1063 K | 127.64
1073 K | 127.65
1083 K | 127.66
1093 K | 127.67
1103 K | 127.68
1113 K | 127.68
1123 K | 127.68
1133 K | 127.69
1143 K | 127.69
1153 K | 127.69
1163 K | 127.7
1173 K | 127.7
1183 K | 127.7
1193 K | 127.7
1203 K | 127.69
